In ChEMBL document CHEMBL3044836, “Synthesis, antimicrobial and cytotoxic activities of novel 4-trifluoromethyl-(1,2,3)-thiadiazolo-5-carboxylic acid hydrazide Schiffs bases” (Med Chem Res, 2013):
In brackets after ≈: the same amount, converted by molar mass.

Legend:
Format in all cases: functional
[1] = test system: Diutina rugosa; assay: Antifungal activity against Candida rugosa NCIM 3462 assessed as growth inhibition at 100 ug/ml after 48 hr by agar cup diffusion method; conditions: NCIM 3462, 48 h, read-out: DIZ
[2] = test system: Staphylococcus aureus; assay: Antibacterial activity against Staphylococcus aureus MTCC 96 assessed as growth inhibition by broth dilution method; conditions: read-out: MIC
[3] = test system: Klebsiella pneumoniae; assay: Antibacterial activity against Klebsiella pneumoniae assessed as growth inhibition by broth dilution method
[4] = test system: Saccharomyces cerevisiae; assay: Antifungal activity against Saccharomyces cerevisiae MTCC 36 assessed as growth inhibition at 100 ug/ml after 48 hr by agar cup diffusion method; conditions: MTCC 36, 48 h, read-out: DIZ
[5] = test system: Staphylococcus epidermidis; assay: Antibacterial activity against Staphylococcus epidermidis MTCC 435 assessed as growth inhibition by broth dilution method
[6] = test system: Candida albicans; assay: Antifungal activity against Candida albicans MTCC 227 assessed as growth inhibition at 150 ug/ml after 48 hr by agar cup diffusion method; conditions: MTCC 227, 48 h, read-out: DIZ
[7] = test system: Bacillus subtilis; assay: Antibacterial activity against Bacillus subtilis MTCC 441 assessed as growth inhibition by broth dilution method
[8] = test system: Candida albicans; assay: Antifungal activity against Candida albicans MTCC 227 assessed as growth inhibition at 100 ug/ml after 48 hr by agar cup diffusion method; conditions: MTCC 227, 48 h, read-out: DIZ
[9] = test system: Aspergillus niger; assay: Antifungal activity against Aspergillus niger MTCC 1344 assessed as growth inhibition at 100 ug/ml after 48 hr by agar cup diffusion method; conditions: MTCC 1344, 48 h, read-out: DIZ
[10] = test system: Escherichia coli; assay: Antibacterial activity against Escherichia coli MTCC 443 assessed as growth inhibition by broth dilution method
[11] = test system: Pseudomonas aeruginosa; assay: Antibacterial activity against Pseudomonas aeruginosa MTCC 741 assessed as growth inhibition by broth dilution method
[12] = test system: Aspergillus niger; assay: Antifungal activity against Aspergillus niger MTCC 1344 assessed as growth inhibition at 150 ug/ml after 48 hr by agar cup diffusion method; conditions: MTCC 1344, 48 h, read-out: DIZ
[13] = test system: Diutina rugosa; assay: Antifungal activity against Candida rugosa NCIM 3462 assessed as growth inhibition at 150 ug/ml after 48 hr by agar cup diffusion method; conditions: NCIM 3462, 48 h, read-out: DIZ
[14] = test system: Saccharomyces cerevisiae; assay: Antifungal activity against Saccharomyces cerevisiae MTCC 36 assessed as growth inhibition at 150 ug/ml after 48 hr by agar cup diffusion method; conditions: MTCC 36, 48 h, read-out: DIZ
[15] = test system: MCF7; assay: Cytotoxicity against Homo sapiens (human) MCF7 cells assessed as cell viability at 10 uM after 48 hr by MTT assay relative to control; conditions: MCF7, 48 h, read-out: Activity
[16] = test system: MDA-MB-231; assay: Cytotoxicity against Homo sapiens (human) MDA-MB-231 cells assessed as cell viability at 10 uM after 48 hr by MTT assay relative to control; conditions: MDA-MB-231, 48 h, read-out: Activity

C/C(=N\NC(=O)c1snnc1C(F)(F)F)c1ccc([N+](=O)[O-])cc1
zone of inhibition at 100 µg/mL [1]: 0 mm
MIC [2]: 150 µg/mL (≈ 417 µM)
MIC [3]: > 150 µg/mL
zone of inhibition at 100 µg/mL [4]: 0 mm
MIC [5]: > 150 µg/mL
zone of inhibition at 150 µg/mL [6]: 0 mm
MIC [7]: > 150 µg/mL
zone of inhibition at 100 µg/mL [8]: 0 mm
zone of inhibition at 100 µg/mL [9]: 0 mm
MIC ([10]; read-out: MIC): 150 µg/mL (≈ 417 µM)
MIC ([11]; read-out: MIC): 150 µg/mL (≈ 417 µM)
zone of inhibition at 150 µg/mL [12]: 0 mm
zone of inhibition at 150 µg/mL [13]: 0 mm
zone of inhibition at 150 µg/mL [14]: 0 mm

C/C(=N\NC(=O)c1snnc1C(F)(F)F)c1ccc(Br)cc1Br
zone of inhibition at 100 µg/mL [1]: 0 mm
viability at 10 µM [15]: 123%
MIC [2]: 150 µg/mL (≈ 318 µM)
MIC ([3]; read-out: MIC): 150 µg/mL (≈ 318 µM)
zone of inhibition at 100 µg/mL [4]: 0 mm
MIC ([5]; read-out: MIC): 150 µg/mL (≈ 318 µM)
zone of inhibition at 150 µg/mL [6]: 15 mm
MIC ([7]; read-out: MIC): 150 µg/mL (≈ 318 µM)
zone of inhibition at 100 µg/mL [8]: 11 mm
zone of inhibition at 100 µg/mL [9]: 0 mm
MIC ([10]; read-out: MIC): 150 µg/mL (≈ 318 µM)
viability at 10 µM [16]: 94.7%
MIC ([11]; read-out: MIC): 150 µg/mL (≈ 318 µM)
zone of inhibition at 150 µg/mL [12]: 0 mm
zone of inhibition at 150 µg/mL [13]: 0 mm
zone of inhibition at 150 µg/mL [14]: 0 mm

CC(C)=NNC(=O)c1snnc1C(F)(F)F
zone of inhibition at 100 µg/mL [1]: 0 mm
MIC [2]: 150 µg/mL (≈ 595 µM)
MIC ([3]; read-out: MIC): 150 µg/mL (≈ 595 µM)
zone of inhibition at 100 µg/mL [4]: 0 mm
MIC ([5]; read-out: MIC): 150 µg/mL (≈ 595 µM)
zone of inhibition at 150 µg/mL [6]: 0 mm
MIC ([7]; read-out: MIC): 150 µg/mL (≈ 595 µM)
zone of inhibition at 100 µg/mL [8]: 0 mm
zone of inhibition at 100 µg/mL [9]: 0 mm
MIC ([10]; read-out: MIC): 150 µg/mL (≈ 595 µM)
MIC ([11]; read-out: MIC): 150 µg/mL (≈ 595 µM)
zone of inhibition at 150 µg/mL [12]: 0 mm
zone of inhibition at 150 µg/mL [13]: 0 mm
zone of inhibition at 150 µg/mL [14]: 0 mm

O=C(NN=C1CCCC1)c1snnc1C(F)(F)F
zone of inhibition at 100 µg/mL [1]: 0 mm
viability at 10 µM [15]: 97.9%
MIC [2]: 150 µg/mL (≈ 539 µM)
MIC ([3]; read-out: MIC): 150 µg/mL (≈ 539 µM)
zone of inhibition at 100 µg/mL [4]: 0 mm
MIC [5]: > 150 µg/mL
zone of inhibition at 150 µg/mL [6]: 0 mm
MIC ([7]; read-out: MIC): 150 µg/mL (≈ 539 µM)
zone of inhibition at 100 µg/mL [8]: 0 mm
zone of inhibition at 100 µg/mL [9]: 0 mm
MIC ([10]; read-out: MIC): 150 µg/mL (≈ 539 µM)
viability at 10 µM [16]: 84.2%
MIC ([11]; read-out: MIC): 150 µg/mL (≈ 539 µM)
zone of inhibition at 150 µg/mL [12]: 0 mm
zone of inhibition at 150 µg/mL [13]: 0 mm
zone of inhibition at 150 µg/mL [14]: 0 mm

O=C(NN=C1CCCCC1)c1snnc1C(F)(F)F
zone of inhibition at 100 µg/mL [1]: 0 mm
viability at 10 µM [15]: 97.2%
MIC [2]: 150 µg/mL (≈ 513 µM)
MIC ([3]; read-out: MIC): 150 µg/mL (≈ 513 µM)
zone of inhibition at 100 µg/mL [4]: 0 mm
MIC ([5]; read-out: MIC): 150 µg/mL (≈ 513 µM)
zone of inhibition at 150 µg/mL [6]: 7 mm
MIC ([7]; read-out: MIC): 150 µg/mL (≈ 513 µM)
zone of inhibition at 100 µg/mL [8]: 0 mm
zone of inhibition at 100 µg/mL [9]: 0 mm
MIC ([10]; read-out: MIC): 150 µg/mL (≈ 513 µM)
viability at 10 µM [16]: 78.6%
MIC [11]: > 150 µg/mL
zone of inhibition at 150 µg/mL [12]: 0 mm
zone of inhibition at 150 µg/mL [13]: 0 mm
zone of inhibition at 150 µg/mL [14]: 0 mm

O=C(NN=C1CCCCCC1)c1snnc1C(F)(F)F
zone of inhibition at 100 µg/mL [1]: 0 mm
MIC [2]: 150 µg/mL (≈ 490 µM)
MIC ([3]; read-out: MIC): 150 µg/mL (≈ 490 µM)
zone of inhibition at 100 µg/mL [4]: 0 mm
MIC [5]: > 150 µg/mL
zone of inhibition at 150 µg/mL [6]: 0 mm
MIC [7]: > 150 µg/mL
zone of inhibition at 100 µg/mL [8]: 0 mm
zone of inhibition at 100 µg/mL [9]: 0 mm
MIC ([10]; read-out: MIC): 150 µg/mL (≈ 490 µM)
MIC ([11]; read-out: MIC): 150 µg/mL (≈ 490 µM)
zone of inhibition at 150 µg/mL [12]: 0 mm
zone of inhibition at 150 µg/mL [13]: 0 mm
zone of inhibition at 150 µg/mL [14]: 0 mm

O=C(N/N=C/c1ccc(Cl)cc1)c1snnc1C(F)(F)F
zone of inhibition at 100 µg/mL [1]: 0 mm
MIC [2]: 150 µg/mL (≈ 448 µM)
MIC ([3]; read-out: MIC): 150 µg/mL (≈ 448 µM)
zone of inhibition at 100 µg/mL [4]: 0 mm
MIC [5]: > 150 µg/mL
zone of inhibition at 150 µg/mL [6]: 0 mm
MIC [7]: > 150 µg/mL
zone of inhibition at 100 µg/mL [8]: 0 mm
zone of inhibition at 100 µg/mL [9]: 0 mm
MIC [10]: > 150 µg/mL
MIC ([11]; read-out: MIC): 150 µg/mL (≈ 448 µM)
zone of inhibition at 150 µg/mL [12]: 0 mm
zone of inhibition at 150 µg/mL [13]: 0 mm
zone of inhibition at 150 µg/mL [14]: 0 mm

O=C(N/N=C/c1ccc(Br)cc1)c1snnc1C(F)(F)F
zone of inhibition at 100 µg/mL [1]: 0 mm
MIC [2]: 150 µg/mL (≈ 396 µM)
MIC ([3]; read-out: MIC): 150 µg/mL (≈ 396 µM)
zone of inhibition at 100 µg/mL [4]: 0 mm
MIC ([5]; read-out: MIC): 150 µg/mL (≈ 396 µM)
zone of inhibition at 150 µg/mL [6]: 0 mm
MIC [7]: > 150 µg/mL
zone of inhibition at 100 µg/mL [8]: 0 mm
zone of inhibition at 100 µg/mL [9]: 0 mm
MIC [10]: > 150 µg/mL
MIC [11]: > 150 µg/mL
zone of inhibition at 150 µg/mL [12]: 0 mm
zone of inhibition at 150 µg/mL [13]: 0 mm
zone of inhibition at 150 µg/mL [14]: 0 mm
